# According to patent US5118791A, “Biologically active polypeptides based on transforming growth factor-β” (Genentech, Inc., priority 1991, dated 1992):
# Where no end group is shown, it is not given here.
# What was measured:
# Assay type in all cases: cell-based
# human lymphocytes [1] = experiment: Inhibition of human lymphocyte proliferation in response to tetanus toxoid; details: tetanus toxoid 2 LF units/ml, six days, dose-dependent, FIG. 4
# Protocol: The medium employed was complete RPMI-1640, i.e., RPMI-1640 (Gibco) supplemented with 10% human pooled AB serum (Hazelton Biologics Inc., Lenexa, KS), 100 u/ml penicillin/100 μg/ml streptomycin, 2 mM L-glutamine (Gibco), 1 mM sodium pyruvate (Gibco), 1% MEM non-essential amino acids (Gibco, 100x), 25 mM HEPES (Gibco), and 1% Nutridoma (Boehringer Manheim).
# Heparinized venous blood (10 u/ml; bovine lung, Upjohn) was mixed with an equal volume of isotonic saline. Approximately 30 ml of the diluted blood was layered over 15 ml of lymphocyte separation medium (LSM, Organon Technika) in […] conical polypropylene centrifuge tubes (Falcon Plastics). The tubes were centrifuged for 40 min. at 400× g at 22° C. […]
# To each of sextuplicate wells of a 96-well flat-bottom microtiter plate (Falcon Plastics) was added 100 μl of the cell suspension. […] The filter discs were dried and suspended in 2 ml of liquid scintillation cocktail (Econofluor, New England Nuclear) in mini-scintillation vials and incorporated radioactivity was determined by liquid scintillation spectrophotometry. Data were expressed as mean counts per min. of the quadruplicate samples, where the cpm of the media control was substrated from the cpm of the stimulated sample.
# human lymphocytes [2] = experiment: Inhibition of human lymphocyte proliferation in response to PMA; details: PMA 40 ng/ml, three days, dose-dependent, FIG. 5
# human lymphocytes [3] = experiment: Inhibition of human lymphocyte proliferation in response to PHA-P; details: PHA-P 1 μg/ml, three days, dose-dependent, FIG. 6
# [4] = tested on: Mu-1-Lv (ATCC CCL 64) mink lung epithelial-like cell; experiment: Inhibition of proliferation of cultured mink lung cells (3H-thymidine incorporation); details: CCL-64 mink lung cells, 24 hours, FIG. 1
# Protocol: The cell line Mu-1-Lv (ATCC CCL 64, Rockville, MD), a mink lung epithelial-like cell, was used to detect TGF-β activity. Mul-1-Lv cells maintained by weekly passage in vitro in CMEM consisting of Eagle's minimum essential medium supplemented with 0.1 mM nonessential amino acids, 2 mM L-glutamine, 1 MM sodium pyruvate (Gibco, Grand Island, NY), and 10% heat-inactivated fetal bovine serum (FBC; HyClone Laboratoris, Logan, UT) were placed into 96-well flat-bottom microtiter plates (10,000/well; Falcon 3075) at a final volume of 200 μl/well. The plates were incubated at 37° C.+5% CO2 for 24 hours. During the last 4 hours of culture, 1 μCi of {3H} thymidine (20 μl/well, 5.0 Ci/mmol; Amersham Corp.) was added. After labeling, 100 μl/well of 10 x Trypsin-EDTA was added per well and the plates were incubated for an additional 15 min. at 37° C. Cells were harvested onto glass filters and counted in a liquid scintillation counter (LS 6800, Beckman, Fullerton, CA). Results (pg/ml of TGF-β) were calculated based on percent inhibition of thymidine incorporation compared with a rHuTGF-β1 laboratory standard.
Substance,inhibition of proliferation of human lymphocytes in response to tetanus toxoid (human lymphocytes [1]),inhibition of proliferation of human lymphocytes in response to PMA (human lymphocytes [2]),inhibition of proliferation of human lymphocytes in response to PHA-P (human lymphocytes [3]),cpm incorporated (activity) as a function of the reciprocal of dilution [4]
"TGF-β1: mature, full-length transforming growth factor-β1",also exhibits this dose-dependent effect,also exhibits this dose-dependent effect,also exhibits this dose-dependent effect,–
CVRQLYIDFRKDLGWK [free polypeptide],–,–,–,"comparable, i.e., low at the low dilution level and high at the high dilution levels"
